The results in this text go back to US20250276964A1 (Novartis AG, priority 2021, published 2025).

SMILES strings stand for the structures.

The assay deals with T1, WIZ (Homo sapiens, UniProt O95785+Q96SW2).
T1 construct: expressed in transfected cells
The assay can be described thus: Quantification of WIZ protein levels in HiBit tag fusion protein assay (WIZ HiBit assay in 293T cells). In kind it is cell-based. To be noted: for Dmax at 25 µM / remaining activity at 25 µM: HEK-293T; for Dmax at 25 µM: read-out: % degradation of WIZ (100-Amax); for remaining activity at 25 µM: read-out: WIZ Amax; for DC50: WIZ HiBit assay in 293T cells, 10-point, 5-fold dilution, highest concentration 25 μM, about 18 hours, read-out: WIZ AC50. A digest of the protocol: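 293T cells stably carrying single-copy HiBit-WIZ (HSVTK promoter) treated ~18 h at 37 °C with 10-point, 5-fold dilutions, top 25 μM. Lytic HiBit luminescence read; Amax is DMSO-normalised, curve-fitted % WIZ-HiBit remaining at 25 uM.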
A general note: With HiBiT, luminescence reflects the tagged protein that the partner subunit can reach.

[1] abbreviates: DMSO-normalized, curve-fitted percentage of WIZ-HiBit remaining at 25 uM.

T1 sequence (O95785 whole entry): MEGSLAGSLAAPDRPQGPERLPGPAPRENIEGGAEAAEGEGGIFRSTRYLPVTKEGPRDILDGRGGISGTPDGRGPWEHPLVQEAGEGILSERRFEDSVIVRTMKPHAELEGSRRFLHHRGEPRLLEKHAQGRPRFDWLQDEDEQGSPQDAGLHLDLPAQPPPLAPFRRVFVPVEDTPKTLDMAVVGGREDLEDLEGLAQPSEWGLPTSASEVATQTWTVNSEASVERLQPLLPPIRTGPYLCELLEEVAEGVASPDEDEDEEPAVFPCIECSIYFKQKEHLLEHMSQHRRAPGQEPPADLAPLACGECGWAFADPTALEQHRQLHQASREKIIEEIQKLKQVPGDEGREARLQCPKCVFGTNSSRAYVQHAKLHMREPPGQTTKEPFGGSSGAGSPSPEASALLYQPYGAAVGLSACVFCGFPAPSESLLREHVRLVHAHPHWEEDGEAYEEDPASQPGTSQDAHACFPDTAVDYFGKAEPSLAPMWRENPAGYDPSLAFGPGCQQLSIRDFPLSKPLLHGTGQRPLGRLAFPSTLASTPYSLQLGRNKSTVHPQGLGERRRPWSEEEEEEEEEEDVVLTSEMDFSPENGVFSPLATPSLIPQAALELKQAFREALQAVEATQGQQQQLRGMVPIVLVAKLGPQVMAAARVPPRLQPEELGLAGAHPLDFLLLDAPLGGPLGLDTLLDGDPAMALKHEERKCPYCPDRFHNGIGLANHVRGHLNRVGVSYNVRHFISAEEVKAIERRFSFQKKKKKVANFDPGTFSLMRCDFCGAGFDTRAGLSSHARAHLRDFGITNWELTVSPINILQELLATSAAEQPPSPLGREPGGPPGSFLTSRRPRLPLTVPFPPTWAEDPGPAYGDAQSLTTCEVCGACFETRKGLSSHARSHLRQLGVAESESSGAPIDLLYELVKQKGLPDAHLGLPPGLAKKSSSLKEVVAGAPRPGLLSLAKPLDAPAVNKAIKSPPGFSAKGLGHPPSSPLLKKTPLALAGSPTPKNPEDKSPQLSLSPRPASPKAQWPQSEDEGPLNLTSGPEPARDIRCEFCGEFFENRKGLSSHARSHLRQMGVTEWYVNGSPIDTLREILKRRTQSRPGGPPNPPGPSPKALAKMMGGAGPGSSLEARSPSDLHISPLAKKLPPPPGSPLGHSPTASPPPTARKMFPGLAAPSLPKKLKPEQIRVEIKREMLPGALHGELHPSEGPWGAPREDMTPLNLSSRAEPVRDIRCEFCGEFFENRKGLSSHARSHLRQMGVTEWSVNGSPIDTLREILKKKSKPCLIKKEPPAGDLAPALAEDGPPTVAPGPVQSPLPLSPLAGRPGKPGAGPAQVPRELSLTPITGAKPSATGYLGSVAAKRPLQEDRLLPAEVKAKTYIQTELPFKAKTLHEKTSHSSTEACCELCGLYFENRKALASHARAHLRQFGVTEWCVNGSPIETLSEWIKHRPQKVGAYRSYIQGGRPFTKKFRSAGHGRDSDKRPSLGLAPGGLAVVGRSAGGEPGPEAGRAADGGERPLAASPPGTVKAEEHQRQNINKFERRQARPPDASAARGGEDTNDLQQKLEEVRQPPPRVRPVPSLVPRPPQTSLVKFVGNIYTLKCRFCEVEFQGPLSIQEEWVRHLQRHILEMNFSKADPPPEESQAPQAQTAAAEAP
T1 sequence (Q96SW2 whole entry): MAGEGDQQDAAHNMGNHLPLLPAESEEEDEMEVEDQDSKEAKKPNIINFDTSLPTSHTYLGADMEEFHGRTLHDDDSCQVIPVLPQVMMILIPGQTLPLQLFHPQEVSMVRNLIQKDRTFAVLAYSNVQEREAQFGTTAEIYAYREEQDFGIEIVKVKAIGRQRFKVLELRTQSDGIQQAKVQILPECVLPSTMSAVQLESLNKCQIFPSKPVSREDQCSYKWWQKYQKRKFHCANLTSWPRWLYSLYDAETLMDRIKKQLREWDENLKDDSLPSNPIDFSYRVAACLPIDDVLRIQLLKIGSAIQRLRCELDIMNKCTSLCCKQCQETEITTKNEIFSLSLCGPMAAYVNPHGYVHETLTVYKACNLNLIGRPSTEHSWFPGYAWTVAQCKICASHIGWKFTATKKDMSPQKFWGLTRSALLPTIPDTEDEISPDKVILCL
T1 sequence (Q16531 whole entry partner): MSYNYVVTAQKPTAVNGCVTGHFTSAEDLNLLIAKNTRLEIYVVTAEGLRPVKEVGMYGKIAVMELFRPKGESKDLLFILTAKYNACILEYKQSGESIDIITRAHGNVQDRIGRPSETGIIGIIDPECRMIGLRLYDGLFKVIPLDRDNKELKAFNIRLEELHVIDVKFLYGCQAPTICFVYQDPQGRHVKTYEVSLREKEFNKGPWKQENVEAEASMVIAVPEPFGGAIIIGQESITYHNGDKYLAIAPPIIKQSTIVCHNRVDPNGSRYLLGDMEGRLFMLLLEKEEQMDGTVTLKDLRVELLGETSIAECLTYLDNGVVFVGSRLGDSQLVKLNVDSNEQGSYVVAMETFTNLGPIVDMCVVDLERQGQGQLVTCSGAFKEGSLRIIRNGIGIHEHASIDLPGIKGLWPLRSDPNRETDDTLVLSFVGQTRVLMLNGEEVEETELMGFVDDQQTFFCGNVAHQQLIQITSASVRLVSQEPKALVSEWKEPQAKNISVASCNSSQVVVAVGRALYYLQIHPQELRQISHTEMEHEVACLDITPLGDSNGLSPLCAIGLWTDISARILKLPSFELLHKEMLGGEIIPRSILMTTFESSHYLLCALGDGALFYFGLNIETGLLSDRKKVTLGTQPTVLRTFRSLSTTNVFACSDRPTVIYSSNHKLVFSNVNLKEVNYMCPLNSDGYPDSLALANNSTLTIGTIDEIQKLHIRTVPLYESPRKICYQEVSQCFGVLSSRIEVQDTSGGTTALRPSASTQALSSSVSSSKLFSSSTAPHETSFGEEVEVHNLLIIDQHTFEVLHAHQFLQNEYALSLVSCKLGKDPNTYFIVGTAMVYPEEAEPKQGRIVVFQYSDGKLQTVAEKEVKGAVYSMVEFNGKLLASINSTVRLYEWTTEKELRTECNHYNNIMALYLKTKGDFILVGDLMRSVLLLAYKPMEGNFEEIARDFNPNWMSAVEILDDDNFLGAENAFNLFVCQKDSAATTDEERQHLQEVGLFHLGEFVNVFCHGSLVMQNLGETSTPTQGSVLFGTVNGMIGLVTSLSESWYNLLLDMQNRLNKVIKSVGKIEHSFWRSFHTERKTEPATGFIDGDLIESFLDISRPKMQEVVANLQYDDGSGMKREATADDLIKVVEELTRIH

As to `CC(C)[C@H]1CN(Cc2ccc3onc(N4CCC(=O)NC4=O)c3c2)CCN1CC1CCOCC1` [Example 38, (S)-1-(5-((3-isopropyl-4-((tetrahydro-2H-pyran-4-yl)methyl)piperazin-1-yl)methyl)benzo[d]isoxazol-3-yl)dihydropyrimidine-2,4(1H,3H)-dione], the DC50 stood at 140 nM. In addition, under “100 minus Amax at 25 uM”, the Dmax at 25 µM was 76%. Moreover, the remaining activity at 25 µM under setting [1] amounted to 24%.
On to `O=C1CCN(c2noc3ccc(CC4CCN(CC5CCCCC5)C4)cc23)C(=O)N1` (stereo not drawn) [Example 49, 1-(5-((1-(cyclohexylmethyl)pyrrolidin-3-yl)methyl)benzo[d]isoxazol-3-yl)dihydropyrimidine-2,4(1H,3H)-dione], for which the DC50 is 279 nM. Further, under “100 minus Amax at 25 uM”, the Dmax at 25 µM was 87%. For the same compound, under setting [1], the remaining activity at 25 µM was 13%.
For the compound `O=C1CCN(c2noc3ccc(CC4CCN(CC5CC5)CC4)cc23)C(=O)N1` [Example 6, 1-(5-((1-(cyclopropylmethyl)piperidin-4-yl)methyl)benzo[d]isoxazol-3-yl)dihydropyrimidine-2,4(1H,3H)-dione], the DC50 came to 30 nM. Also, the Dmax at 25 µM (100 minus Amax at 25 uM) stood at 91%. Moreover, the remaining activity at 25 µM under setting [1] stood at 9%.
With `O=C1CCN(c2noc3ccc(CN4CCN(C5CCOCC5)CC4)cc23)C(=O)N1` [Example 81, 1-(5-((4-(tetrahydro-2H-pyran-4-yl)piperazin-1-yl)methyl)benzo[d]isoxazol-3-yl)dihydropyrimidine-2,4(1H,3H)-dione], the DC50 was 26 nM. Besides, under “100 minus Amax at 25 uM”, the Dmax at 25 µM came out at 90%. For the same compound, under setting [1], the remaining activity at 25 µM was found to be 10%.
The like results for `CC(C)(C)OC(=O)N1CCCC(Cc2ccc3onc(N4CCC(=O)NC4=O)c3c2)CC1` (stereo not drawn) [Example 51, tert-butyl 4-((3-(2,4-dioxotetrahydropyrimidin-1 (2H)-yl)benzo[d]isoxazol-5-yl)methyl)azepane-1-carboxylate] were, in that order, 392 nM, 87% and 13%.
The like results for `CN1CCCC(Cc2ccc3onc(N4CCC(=O)NC4=O)c3c2)CC1` (stereo not drawn) [Example 53, 1-(5-((1-methylazepan-4-yl)methyl)benzo[d]isoxazol-3-yl)dihydropyrimidine-2,4(1H,3H)-dione] were, in that order, 4 nM, 87% and 13%.
Turning to `C[C@H]1CN(CC2CCOCC2)[C@@H](C)CN1Cc1ccc2onc(N3CCC(=O)NC3=O)c2c1` [Example 107, 1-(5-(((2S,5S)-2,5-dimethyl-4-((tetrahydro-2H-pyran-4-yl)methyl)piperazin-1-yl)methyl)benzo[d]isoxazol-3-yl)dihydropyrimidine-2,4(1H,3H)-dione], the DC50 was determined as 56 nM. Also, for the setting “100 minus Amax at 25 uM”, the Dmax at 25 µM stood at 86%. The remaining activity at 25 µM under setting [1] stood at 14%.
The matching figures for `CN1CCCC(Cc2ccc3onc(N4CCC(=O)NC4=O)c3c2)C1` (stereo not drawn) [Example 45, 1-(5-((1-methylpiperidin-3-yl)methyl)benzo[d]isoxazol-3-yl)dihydropyrimidine-2,4(1H,3H)-dione]: 240 nM, 77% and 23%.
For `CC(=O)N1CCN(Cc2ccc3onc(N4CCC(=O)NC4=O)c3c2)[C@H](C)C1` [Example 64, (R)-1-(5-((4-acetyl-2-methylpiperazin-1-yl)methyl)benzo[d]isoxazol-3-yl)dihydropyrimidine-2,4(1H,3H)-dione], the DC50 stood at 229 nM. The Dmax at 25 µM (100 minus Amax at 25 uM) is 75%. In addition, the remaining activity at 25 µM under setting [1] stood at 25%.
Take `O=C1CCN(c2noc3ccc(CC4C[C@H]5CC[C@@H](C4)N5)cc23)C(=O)N1` (stereo partly drawn) [Example 56, 1-(5-(((1R,5S)-8-azabicyclo[3.2.1]octan-3-yl)methyl)benzo[d]isoxazol-3-yl)dihydropyrimidine-2,4(1H,3H)-dione]: the DC50 is 251 nM. Moreover, the “% degradation of WIZ (100-Amax)” value (100 minus Amax at 25 uM) is 45%. The “WIZ Amax” value under setting [1] worked out at 55%.
